According to patent publication US9364493B2, “Methods and compositions for enhancing the uptake of therapeutic agents by target cells” (Tsinghua University, priority 2011, dated 2016):

Columns and labels:
[1] = tested on: Human microvascular endothelial cells (HMECs); experiment: Internalization of ES and its derivatives in blood vessel endothelial cells (Western Blotting); assay type: cell-based; details: for effect on ES internalization in endothelial cells: tested in place of NT: AMB 25-50 μg/mL, methyl-β-cyclodextrin 1-2 mM, filipin 2.5-5 μg/mL; for increase of ES internalization: then ES 5 μg/mL 30 min, vs cells without NT
Source text: Human microvascular endothelial cells (HMECs) were from ATCC (accession number CRL 10636). Mouse lymphatic endothelial cells (mLEC) were isolated via digesting peritoneal lymphoma induced by incomplete Freund's adjuvant injection (Zhuo W. et al, Journal of Pathology; 222:249-260). […] (SEQ ID NO:5) at N-terminal, the sequence of which is SEQ ID NO.3 or SEQ ID NO.4 because the first amino acid residue M will be randomly deleted when expressed in E. Coli. ES was obtained from Protgen Ltd., the amino acid sequence of which is SEQ ID NO.1 or SEQ ID NO.2 because the first amino acid residue M will be randomly deleted when expressed in E. Coli. Monomethoxy PEG propionaldehyde (mPEG-ALD) with an average molecular weight of 20 kDa (Jenkem Technology CO., Ltd.,) was used as the PEG reagent for specifically modifying the α-amino group at N-terminal of a protein. PEG-ES and PEG-Endu were prepared by Protgen Ltd. according to the instructions provided in the PEG reagent kit. Monoclonal antibody against ES was purchased from Oncogene Science, Inc. NT and other reagents were purchased from Sigma-Aldrich Co.
The endothelial cells were cultured to reach 90% confluence, and then pre-treated with DMEM medium (Hyclone) containing NT as follows. NT stock solution was added to the medium to a final concentration of 0 μg/mL, 25 μg/mL, or 50 μg/mL, and the culture was then incubated in a 5% CO2 atmosphere at 37° C. for 20 min for NT pre-treatment. After pre-treatment, ES stock solution (5 mg/ml) was added to the medium to a final concentration of 5 μg/mL. The culture was then incubated in a 5% CO2 atmosphere at 37° C. for 30 min to allow the internalization of ES by the endothelial cells. After removing the medium, the endothelial cells were washed with ice-cold PBS for 3 times and then collected. The ES internalization in whole cell lysate, cytosolic fraction, and nuclear fraction was examined by Western Blotting, compared with the cells without NT treatment.
Some other agents which share the same action mechanism as NT were also tested in place of in this example, such as AMB (25-50 μg/mL), methyl-β-cyclodextrin (1-2 mM), and filipin (2.5-5 μg/mL).
Other therapeutic agents which share the same action mechanism as ES can also be used in this example, such as PEG-modified ES. For this purpose, ES was modified with monomethoxy PEG propionaldehyde (mPEG-ALD) of 20 kDa which specifically modifies the N-terminal of a protein, and the product (PEG-ES) was an ES protein conjugated with one PEG molecule at the N-terminal α-amino group of ES.

[2] = tested on: tumor blood vessel endothelial cells (CD31) in A549 tumors; experiment: Tumor blood vessel formation assay (CD31 immunofluorescence), A549 mice; assay type: in vivo, nude mice; details: NT 6 mg/kg plus ES 12 mg/kg vs ES alone, CD31 blood vessel area
Source text: Tumor blood vessel formation assay: Tumors from A549 mice were resected, fixed and sectioned. Samples were detected with primary antibody against CD31 (the marker of tumor blood vessel endothelial cells) and FITC-labeled secondary antibody (Santa Cruz), and then observed with Nikon A1 laser scanning confocal microscope (LSCM). The sectional areas of blood vessels in randomly selected fields (400×) were quantified and averaged with the software of the LSCM system.

[3] = tested on: EGFR-expressing A549 cells; experiment: EGFR monoclonal antibody (Cetuximab) internalization in tumor cells (Western Blotting); assay type: cell-based, human; details: NT 25 or 50 μg/mL pre-treatment 20 min, then Cetuximab 5 μg/mL 30 min; positively correlated to NT concentrations
Protocol: EGFR-expressing A549 cells at exponential growth were cultured to reach 90% confluence and then pre-treated with DMEM medium containing NT as follows. NT stock solution was added to the medium to a final concentration of […], 25 μg/mL, or 50 μg/mL, and the culture was then incubated in a 5% CO2 atmosphere at 37° C. for 20 min for NT pre-treatment. After pre-treatment, EGFR monoclonal antibody (Cetuximab, Merck) stock solution (5 mg/ml) was added to the medium to a final concentration of 5 μg/mL. The culture was then incubated in a 5% CO2 atmosphere at 37° C. for 30 min to allow the internalization of EGFR monoclonal antibody by the […]. After treatment, the medium was removed, and the endothelial cells were washed with ice-cold PBS for 3 times and then collected. The EGFR monoclonal antibody internalization in cells was examined by Western Blotting, compared with EGFR monoclonal antibody internalization in cells without NT treatment.

[4] = tested on: p38 MAPK pathway; experiment: p38 MAPK signaling pathway activation in endothelial cells (Western Blotting); assay type: cell-based; details: NT 50 μg/mL 20 min and/or ES 5 μg/mL 30 min; vs negative control
Protocol: (§1) In this example, endothelial cells were separated into four groups: (1) negative control group, neither NT treatment, nor ES treatment; (2) NT group, treatment with NT at 50 μg/mL for 20 min, without ES treatment; (3) ES group, treatment with ES at 5 μg/mL for 30 min, without NT treatment; (4) NT plus ES group, treatment with NT at 50 μg/mL for 20 min, followed by treatment with ES at 5 μg/mL for 30 min. After treatment with the same method as described in Example 1, cells were collected and the ERK and p38 MAPK pathways were examined.

[5] = tested on: HMEC; experiment: Transwell cell migration assay; assay type: cell-based, human; details: NT 50 μg/mL alone; 10 ng/mL VEGF, 6 hours; vs negative control
Protocol: Cell migration assay: HMEC (2×10^4 cells per well) were seeded into DMEM (Hyclone) containing 0.5% FBS (Hyclone) and 10 ng/mL VEGF (PeproTech) on the upper layer of Transwell chambers (8 μm pores, Costar). ES (40 μg/mL) or NT (50 μg/mL) was added into both the upper and lower layers, and then the chambers were incubated in a 5% CO2 atmosphere at 37° C. for 6 hours to allow cell migration. […] The numbers of the cells migrated into the lower layer were counted and mean values were calculated. Experiments were performed in triplicate and each experiment was repeated twice.
In this example, endothelial cells were separated into four groups: (1) negative control group, neither NT treatment, nor ES treatment; (2) NT group, treatment with NT at 50 μg/mL, without ES treatment; (3) ES group, treatment with ES at 40 μg/mL, without NT treatment; (4) NT plus ES group, combined treatment with NT at 50 μg/mL and ES at 40 μg/mL. […] ES treatment (ES group) inhibited the transwell migration of endothelial cells by 61%.

[6] = tested on: ERK pathway; experiment: ERK signaling pathway activation in endothelial cells (Western Blotting); assay type: cell-based; details: NT 50 μg/mL 20 min and/or ES 5 μg/mL 30 min; vs negative control
Protocol: as §1

[7] = tested on: Human lung adenocarcinoma A549 tumor; experiment: A549 lung adenocarcinoma tumor growth in nude mice; assay type: in vivo; details: NT 6 mg/kg i.p. daily alone, fourteen daily injections; vs control group
Protocol: Human lung adenocarcinoma A549 tumor cells (ATCC accession number CCL-185) at exponential growth were subcutaneously inoculated into 6-8 week-old nude mice (Vital River Laboratory Animal Technology Co., Ltd). When the tumor volume reached 100 mm^3, the tumor bearing nude mice were separated into four groups: (1) negative control, treatment with saline; (2) NT group, treatment with NT (6 mg/kg, intraperitoneal injection, daily), without ES treatment; (3) ES group, treatment with ES (12 mg/kg, intraperitoneal injection, daily), without NT treatment; (4) NT plus ES group, combined treatment with NT (6 mg/kg, intraperitoneal injection, daily) and ES (12 mg/kg, intraperitoneal injection, daily). After fourteen daily injections, mice were sacrificed, and the weight and volume of the tumors were measured.

[8] = tested on: H22 liver cancer; experiment: H22 liver cancer mouse model; assay type: in vivo
[9] = tested on: Mouse lymphatic endothelial cells (mLEC); experiment: ES internalization in lymphatic endothelial cells (Western Blotting); assay type: cell-based; details: then ES 2 μg/mL 15 min
Source text: Human microvascular endothelial cells (HMECs) were from ATCC (accession number CRL 10636). Mouse lymphatic endothelial cells (mLEC) were isolated via digesting peritoneal lymphoma induced by incomplete Freund's adjuvant injection (Zhuo W. et al, Journal of Pathology; 222:249-260). Endu was obtained from Simcere-Medgenn Bio-pharmaceutical Co., Ltd. Endu is a recombinant ES containing an additional amino acid sequence (M)GGSHHHHH (SEQ ID NO:5) at N-terminal, the sequence of which is SEQ ID NO.3 or SEQ ID NO.4 because the first amino acid residue M will be randomly deleted when expressed in E. Coli. ES was obtained from Protgen Ltd., the amino acid sequence of which is SEQ ID NO.1 or SEQ ID NO.2 because the first amino acid residue M will be randomly deleted when expressed in E. Coli. Monomethoxy PEG propionaldehyde (mPEG-ALD) with an average molecular weight of 20 kDa (Jenkem Technology CO., Ltd.,) was used as the PEG reagent for specifically modifying the α-amino group at N-terminal of a protein. PEG-ES and PEG-Endu were prepared by Protgen Ltd. according to the instructions provided in the PEG reagent kit. Monoclonal antibody against ES was purchased from Oncogene Science, Inc. NT and other reagents were purchased from Sigma-Aldrich Co.
The mLECs were pre-treated with DMEM (Hyclone) containing 0, 75, 150, or 300 μg/mL NT in a 5% CO2 atmosphere at 37° C. for 20 min. The cells were then incubated with culture media containing ES (final concentration of 2 μg/mL) in a 5% CO2 atmosphere at 37° C. for 15 min. After treatment, the cells were washed with PBS for 3 times, and then collected. The ES internalization in cells treated with NT at various concentrations was examined by Western Blotting.

[10] = NT treatment, same dosage and treatment time, positively correlated to NT concentration

With `C[C@@H]1[C@H](O)[C@@H](C)/C=C/C=C/C=C/C=C/C=C/C=C/C=C/[C@H](O[C@@H]2O[C@H](C)[C@@H](O)[C@H](N)[C@@H]2O)C[C@@H]2O[C@](O)(C[C@@H](O)C[C@@H](O)[C@H](O)CC[C@@H](O)C[C@@H](O)CC(=O)O[C@H]1C)C[C@H](O)[C@H]2C(=O)O` [AMB, Amphotericin B] the “effect on ES internalization in endothelial cells” value (“effect on ES internalization” for short) [1] was “can increase ES internalization”.
For `CCCCC[C@@H](O)[C@H]1C(=O)O[C@H](C)[C@@H](O)/C=C/C=C/C=C/C=C/C=C(\C)[C@@H](O)C[C@H](O)C[C@H](O)C[C@H](O)C[C@H](O)C[C@H](O)C[C@@H]1O` [filipin], the “effect on ES internalization” value [1] was “can increase ES internalization”.
With `C[C@@H]1[C@H](O)[C@@H](C)/C=C/C=C/CC/C=C/C=C/C=C/C=C/C(O[C@H]2O[C@H](C)[C@@H](O)[C@H](N)[C@@H]2O)CC2O[C@](O)(CC(O)C(O)CCC(O)CC(O)CC(O)CC(=O)O[C@H]1C)CC(O)C2C(=O)O` (stereo partly shown) [NT, Nystatin] the “increase of ES internalization” value ([1]; NT 25 μg/mL pre-treatment 20 min) was “about 2 folds”, the “increase of ES internalization” value ([1]; NT 50 μg/mL pre-treatment 20 min) was ~15 folds and the “effect on PEG-ES internalization in blood vessel endothelial cells” value ([1]; NT treatment, same PEG-ES dosage and treatment time, positively correlated to NT concentration) was “increased”. The “effect on Endu internalization in endothelial cells” value [1, 10] was “increased”, the “effect on PEG-Endu internalization in endothelial cells” value [1, 10] was “increased” and the “effect on inhibitory efficacy of ES on tumor blood vessel formation” value [2] was “potentiated”. For the same molecule, the “effect on Cetuximab internalization in the cells” value [3] was “significantly increased”, the “effect on activation of p38 MAPK pathway” value [4] was “did not influence” and the “effect on transwell migration of endothelial cells (in words)” value [5] was “did not substantially influence”. The “effect on activation of ERK pathway” value [6] was “did not influence”, the “effect on tumor growth (in words)” value [7] was “did not influence tumor growth” and the “effect on antiangiogenesis activity of ES” value ([8]; tumor blood vessel area) was “enhancement effect”. For the same molecule, the “effect on antitumor activity of ES” value ([8]; tumor weight) was “enhancement effect”, the “increase of ES internalization in mLECs” value ([9]; NT 75 μg/mL pre-treatment 20 min) was 16 fold and the “increase of ES internalization in mLECs” value ([9]; NT 150 μg/mL pre-treatment 20 min) was 32 fold. The “increase of ES internalization in mLECs” value ([9]; NT 300 μg/mL pre-treatment 20 min) was 78 fold.
With methyl-β-cyclodextrin the “effect on ES internalization” value [1] was “can increase ES internalization”.
